# Biological target: Serine/threonine-protein kinase 26 (Homo sapiens) (UniProt Q9P289)
# Sequence (Q9P289 2-416 limits assumed): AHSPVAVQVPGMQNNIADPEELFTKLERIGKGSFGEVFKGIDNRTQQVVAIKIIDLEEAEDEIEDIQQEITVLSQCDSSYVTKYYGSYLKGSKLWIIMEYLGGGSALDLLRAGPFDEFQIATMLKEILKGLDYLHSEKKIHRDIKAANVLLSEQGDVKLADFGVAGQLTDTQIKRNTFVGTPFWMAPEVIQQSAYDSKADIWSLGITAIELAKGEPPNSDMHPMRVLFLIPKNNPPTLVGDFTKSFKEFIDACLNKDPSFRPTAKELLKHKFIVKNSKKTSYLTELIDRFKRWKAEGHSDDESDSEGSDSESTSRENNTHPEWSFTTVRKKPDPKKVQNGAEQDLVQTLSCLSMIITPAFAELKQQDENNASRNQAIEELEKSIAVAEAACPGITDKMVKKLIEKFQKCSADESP
row,Structure (SMILES),ΔTm [°C]
1,CN(C)CCCn1cc(C2=C(c3c[nH]c4ccccc34)C(=O)NC2=O)c2ccccc21 [GF-109203],3.1
2,Cl.Cn1cc(C2=C(c3ccc4cc5n(c4c3)CCC(CN)C5)C(=O)NC2=O)c2ccccc21 (stereo not given),1.2
3,C[S+]([O-])c1ccc(CSc2nc(-c3ccc(F)cc3)c(-c3ccncc3)[nH]2)cc1 (stereo not given),0.4
4,NC1=N/C(=C2/CCNC(=O)c3[nH]ccc32)C(=O)N1 [DEBROMOHYMENIALDISINE],1.3

# Biological target: Serine/threonine-protein kinase PAK 6 (Homo sapiens) (UniProt Q9NQU5)
row,Structure (SMILES),ΔTm [°C]
1,CN(C)CCCn1cc(C2=C(c3c[nH]c4ccccc34)C(=O)NC2=O)c2ccccc21 [GF-109203],2.4
2,Cl.Cn1cc(C2=C(c3ccc4cc5n(c4c3)CCC(CN)C5)C(=O)NC2=O)c2ccccc21 (stereo not given),0.7
3,C[S+]([O-])c1ccc(CSc2nc(-c3ccc(F)cc3)c(-c3ccncc3)[nH]2)cc1 (stereo not given),0
4,NC1=N/C(=C2/CCNC(=O)c3[nH]ccc32)C(=O)N1 [DEBROMOHYMENIALDISINE],0.1

# Biological target: Calcium/calmodulin-dependent protein kinase kinase 2 (Homo sapiens, UniProt Q96RR4)
# Sequence (Q96RR4 2-588 limits assumed): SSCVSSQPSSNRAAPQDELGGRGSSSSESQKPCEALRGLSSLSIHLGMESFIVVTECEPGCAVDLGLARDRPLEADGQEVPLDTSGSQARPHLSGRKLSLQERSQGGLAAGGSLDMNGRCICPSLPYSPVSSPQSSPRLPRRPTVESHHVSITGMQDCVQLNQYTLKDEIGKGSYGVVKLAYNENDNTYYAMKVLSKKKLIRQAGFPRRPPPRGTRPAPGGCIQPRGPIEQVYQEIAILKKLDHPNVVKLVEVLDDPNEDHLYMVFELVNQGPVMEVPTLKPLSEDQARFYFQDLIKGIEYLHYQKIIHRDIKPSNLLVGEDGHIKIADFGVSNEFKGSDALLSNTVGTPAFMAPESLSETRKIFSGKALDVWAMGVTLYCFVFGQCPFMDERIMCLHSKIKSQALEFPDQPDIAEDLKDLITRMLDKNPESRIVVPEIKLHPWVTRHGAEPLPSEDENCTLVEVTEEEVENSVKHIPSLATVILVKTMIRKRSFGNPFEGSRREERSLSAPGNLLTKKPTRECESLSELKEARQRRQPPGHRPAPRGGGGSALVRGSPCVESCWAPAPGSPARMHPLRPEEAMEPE
row,Structure (SMILES),ΔTm [°C]
1,CN(C)CCCn1cc(C2=C(c3c[nH]c4ccccc34)C(=O)NC2=O)c2ccccc21 [GF-109203],2.6
2,Cl.Cn1cc(C2=C(c3ccc4cc5n(c4c3)CCC(CN)C5)C(=O)NC2=O)c2ccccc21 (stereo not given),-1.3
3,C[S+]([O-])c1ccc(CSc2nc(-c3ccc(F)cc3)c(-c3ccncc3)[nH]2)cc1 (stereo not given),0.9
4,NC1=N/C(=C2/CCNC(=O)c3[nH]ccc32)C(=O)N1 [DEBROMOHYMENIALDISINE],1.4

# Biological target: Serine/threonine-protein kinase pim-2 (Homo sapiens, UniProt Q9P1W9)
row,Structure (SMILES),ΔTm [°C]
1,CN(C)CCCn1cc(C2=C(c3c[nH]c4ccccc34)C(=O)NC2=O)c2ccccc21 [GF-109203],5.2
2,Cl.Cn1cc(C2=C(c3ccc4cc5n(c4c3)CCC(CN)C5)C(=O)NC2=O)c2ccccc21 (stereo not given),3.1
3,C[S+]([O-])c1ccc(CSc2nc(-c3ccc(F)cc3)c(-c3ccncc3)[nH]2)cc1 (stereo not given),0.4
4,NC1=N/C(=C2/CCNC(=O)c3[nH]ccc32)C(=O)N1 [DEBROMOHYMENIALDISINE],2.5

# Biological target: T1, Mitogen-activated protein kinase kinase kinase 5 (Homo sapiens) (UniProt Q99683)
# T1 sequence (whole entry): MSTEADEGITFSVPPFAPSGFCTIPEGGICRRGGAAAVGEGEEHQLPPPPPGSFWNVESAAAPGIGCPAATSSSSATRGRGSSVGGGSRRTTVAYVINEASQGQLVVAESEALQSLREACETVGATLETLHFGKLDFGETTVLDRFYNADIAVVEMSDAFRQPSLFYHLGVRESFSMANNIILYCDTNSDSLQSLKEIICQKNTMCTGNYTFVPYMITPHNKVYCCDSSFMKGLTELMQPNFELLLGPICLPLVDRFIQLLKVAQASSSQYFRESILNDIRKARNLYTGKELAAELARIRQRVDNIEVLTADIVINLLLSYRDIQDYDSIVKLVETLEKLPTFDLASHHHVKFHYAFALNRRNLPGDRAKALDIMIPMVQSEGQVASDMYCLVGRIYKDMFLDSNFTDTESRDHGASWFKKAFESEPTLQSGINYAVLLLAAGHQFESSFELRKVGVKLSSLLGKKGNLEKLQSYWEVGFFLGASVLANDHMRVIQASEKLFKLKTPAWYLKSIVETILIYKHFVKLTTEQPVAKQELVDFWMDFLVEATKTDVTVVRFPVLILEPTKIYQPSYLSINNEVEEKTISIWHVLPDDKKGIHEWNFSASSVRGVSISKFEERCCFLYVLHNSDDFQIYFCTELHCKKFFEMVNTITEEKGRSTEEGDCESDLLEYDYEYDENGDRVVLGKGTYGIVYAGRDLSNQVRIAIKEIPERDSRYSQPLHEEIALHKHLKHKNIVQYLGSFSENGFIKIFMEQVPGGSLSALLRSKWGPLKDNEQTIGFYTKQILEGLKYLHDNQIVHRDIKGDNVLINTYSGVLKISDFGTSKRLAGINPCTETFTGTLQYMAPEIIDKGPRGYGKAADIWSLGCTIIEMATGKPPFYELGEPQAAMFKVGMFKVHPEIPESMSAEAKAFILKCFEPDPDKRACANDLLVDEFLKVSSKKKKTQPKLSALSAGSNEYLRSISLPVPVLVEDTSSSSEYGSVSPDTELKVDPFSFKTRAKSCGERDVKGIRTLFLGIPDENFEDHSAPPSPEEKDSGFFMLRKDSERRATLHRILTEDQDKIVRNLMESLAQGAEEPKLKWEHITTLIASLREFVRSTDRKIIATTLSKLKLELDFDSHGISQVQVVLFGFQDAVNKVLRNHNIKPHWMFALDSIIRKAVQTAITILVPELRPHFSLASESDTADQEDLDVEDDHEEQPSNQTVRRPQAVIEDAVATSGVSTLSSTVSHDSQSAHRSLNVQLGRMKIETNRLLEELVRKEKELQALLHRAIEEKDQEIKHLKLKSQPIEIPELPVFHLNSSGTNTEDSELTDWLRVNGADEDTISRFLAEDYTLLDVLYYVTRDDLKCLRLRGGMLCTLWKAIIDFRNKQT
row,Structure (SMILES),ΔTm [°C]
1,CN(C)CCCn1cc(C2=C(c3c[nH]c4ccccc34)C(=O)NC2=O)c2ccccc21 [GF-109203],0.9
2,Cl.Cn1cc(C2=C(c3ccc4cc5n(c4c3)CCC(CN)C5)C(=O)NC2=O)c2ccccc21 (stereo not given),0
3,C[S+]([O-])c1ccc(CSc2nc(-c3ccc(F)cc3)c(-c3ccncc3)[nH]2)cc1 (stereo not given),0.9
4,NC1=N/C(=C2/CCNC(=O)c3[nH]ccc32)C(=O)N1 [DEBROMOHYMENIALDISINE],4.6

# Biological target: Serine/threonine-protein kinase Nek6 (Homo sapiens) (UniProt Q9HC98)
# Sequence (Q9HC98 whole entry): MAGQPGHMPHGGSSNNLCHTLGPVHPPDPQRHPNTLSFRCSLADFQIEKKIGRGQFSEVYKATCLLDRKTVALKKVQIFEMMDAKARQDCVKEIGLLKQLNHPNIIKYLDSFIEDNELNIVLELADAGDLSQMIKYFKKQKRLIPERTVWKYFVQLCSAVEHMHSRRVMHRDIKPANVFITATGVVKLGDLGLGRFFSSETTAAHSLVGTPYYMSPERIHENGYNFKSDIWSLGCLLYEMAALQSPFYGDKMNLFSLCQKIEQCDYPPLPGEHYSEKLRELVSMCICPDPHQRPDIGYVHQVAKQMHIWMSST
row,Structure (SMILES),ΔTm [°C]
1,CN(C)CCCn1cc(C2=C(c3c[nH]c4ccccc34)C(=O)NC2=O)c2ccccc21 [GF-109203],0.9
2,Cl.Cn1cc(C2=C(c3ccc4cc5n(c4c3)CCC(CN)C5)C(=O)NC2=O)c2ccccc21 (stereo not given),-0.7
3,C[S+]([O-])c1ccc(CSc2nc(-c3ccc(F)cc3)c(-c3ccncc3)[nH]2)cc1 (stereo not given),-0.2
4,NC1=N/C(=C2/CCNC(=O)c3[nH]ccc32)C(=O)N1 [DEBROMOHYMENIALDISINE],-0.5

# Biological target: T2, Serine/threonine-protein kinase VRK3 (Homo sapiens) (UniProt Q8IV63)
# T2 sequence (whole entry): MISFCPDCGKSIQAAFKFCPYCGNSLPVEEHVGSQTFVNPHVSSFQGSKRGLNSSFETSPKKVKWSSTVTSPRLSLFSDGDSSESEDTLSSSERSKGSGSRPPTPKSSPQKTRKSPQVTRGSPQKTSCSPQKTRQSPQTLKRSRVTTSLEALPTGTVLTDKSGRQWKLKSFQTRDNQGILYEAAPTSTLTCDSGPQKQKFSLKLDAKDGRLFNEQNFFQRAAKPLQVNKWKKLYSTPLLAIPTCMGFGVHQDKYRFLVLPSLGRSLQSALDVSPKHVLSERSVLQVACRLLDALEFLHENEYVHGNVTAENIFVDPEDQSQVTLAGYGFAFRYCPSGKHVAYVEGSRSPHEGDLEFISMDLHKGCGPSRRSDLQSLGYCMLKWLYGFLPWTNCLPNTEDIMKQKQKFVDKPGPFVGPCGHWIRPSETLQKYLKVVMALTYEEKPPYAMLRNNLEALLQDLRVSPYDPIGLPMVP
row,Structure (SMILES),ΔTm [°C]
1,CN(C)CCCn1cc(C2=C(c3c[nH]c4ccccc34)C(=O)NC2=O)c2ccccc21 [GF-109203],0
2,Cl.Cn1cc(C2=C(c3ccc4cc5n(c4c3)CCC(CN)C5)C(=O)NC2=O)c2ccccc21 (stereo not given),0.6
3,C[S+]([O-])c1ccc(CSc2nc(-c3ccc(F)cc3)c(-c3ccncc3)[nH]2)cc1 (stereo not given),-0.8
4,NC1=N/C(=C2/CCNC(=O)c3[nH]ccc32)C(=O)N1 [DEBROMOHYMENIALDISINE],0.5

# Biological target: Casein kinase I isoform gamma-3 (Homo sapiens) (UniProt Q9Y6M4)
row,Structure (SMILES),ΔTm [°C]
1,CN(C)CCCn1cc(C2=C(c3c[nH]c4ccccc34)C(=O)NC2=O)c2ccccc21 [GF-109203],0.3
2,Cl.Cn1cc(C2=C(c3ccc4cc5n(c4c3)CCC(CN)C5)C(=O)NC2=O)c2ccccc21 (stereo not given),0.6
3,C[S+]([O-])c1ccc(CSc2nc(-c3ccc(F)cc3)c(-c3ccncc3)[nH]2)cc1 (stereo not given),-0.1
4,NC1=N/C(=C2/CCNC(=O)c3[nH]ccc32)C(=O)N1 [DEBROMOHYMENIALDISINE],2.4

# Biological target: 5'-AMP-activated protein kinase catalytic subunit alpha-2 (Homo sapiens) (UniProt P54646)
# Sequence (P54646 whole entry, looked up): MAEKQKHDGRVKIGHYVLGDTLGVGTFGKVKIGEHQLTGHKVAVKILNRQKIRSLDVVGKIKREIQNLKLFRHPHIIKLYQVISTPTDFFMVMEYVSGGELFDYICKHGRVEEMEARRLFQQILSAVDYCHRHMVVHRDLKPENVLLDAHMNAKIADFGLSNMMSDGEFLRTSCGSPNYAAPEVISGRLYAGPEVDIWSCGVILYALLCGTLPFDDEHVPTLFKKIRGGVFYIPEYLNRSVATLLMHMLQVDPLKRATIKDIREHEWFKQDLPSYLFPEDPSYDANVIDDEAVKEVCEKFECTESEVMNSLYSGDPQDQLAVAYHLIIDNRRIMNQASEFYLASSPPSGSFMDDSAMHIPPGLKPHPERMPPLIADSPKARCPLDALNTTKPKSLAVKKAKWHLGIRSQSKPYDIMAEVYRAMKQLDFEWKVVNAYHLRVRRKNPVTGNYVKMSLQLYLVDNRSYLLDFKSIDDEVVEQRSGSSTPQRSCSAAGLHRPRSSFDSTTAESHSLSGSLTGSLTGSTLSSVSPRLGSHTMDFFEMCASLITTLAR
row,Structure (SMILES),ΔTm [°C]
1,CN(C)CCCn1cc(C2=C(c3c[nH]c4ccccc34)C(=O)NC2=O)c2ccccc21 [GF-109203],2.6
2,Cl.Cn1cc(C2=C(c3ccc4cc5n(c4c3)CCC(CN)C5)C(=O)NC2=O)c2ccccc21 (stereo not given),-0.4
3,C[S+]([O-])c1ccc(CSc2nc(-c3ccc(F)cc3)c(-c3ccncc3)[nH]2)cc1 (stereo not given),-0.3
4,NC1=N/C(=C2/CCNC(=O)c3[nH]ccc32)C(=O)N1 [DEBROMOHYMENIALDISINE],-0.5

# Biological target: Cyclin-dependent kinase 16 (Homo sapiens) (UniProt Q00536)
# Sequence (Q00536 whole entry): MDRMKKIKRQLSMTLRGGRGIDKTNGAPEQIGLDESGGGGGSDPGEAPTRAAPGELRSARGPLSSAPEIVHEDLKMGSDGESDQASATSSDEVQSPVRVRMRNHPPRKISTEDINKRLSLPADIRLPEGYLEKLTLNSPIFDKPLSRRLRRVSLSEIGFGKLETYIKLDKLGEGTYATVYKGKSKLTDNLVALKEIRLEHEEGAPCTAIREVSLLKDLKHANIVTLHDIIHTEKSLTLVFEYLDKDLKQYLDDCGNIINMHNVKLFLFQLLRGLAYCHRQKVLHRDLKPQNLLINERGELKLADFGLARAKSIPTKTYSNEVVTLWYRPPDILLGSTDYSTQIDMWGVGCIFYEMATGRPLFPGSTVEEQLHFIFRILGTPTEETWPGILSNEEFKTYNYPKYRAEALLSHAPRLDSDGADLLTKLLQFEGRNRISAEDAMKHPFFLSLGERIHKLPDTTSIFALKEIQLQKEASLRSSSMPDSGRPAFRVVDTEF
row,Structure (SMILES),ΔTm [°C]
1,CN(C)CCCn1cc(C2=C(c3c[nH]c4ccccc34)C(=O)NC2=O)c2ccccc21 [GF-109203],3
2,Cl.Cn1cc(C2=C(c3ccc4cc5n(c4c3)CCC(CN)C5)C(=O)NC2=O)c2ccccc21 (stereo not given),2.9
3,C[S+]([O-])c1ccc(CSc2nc(-c3ccc(F)cc3)c(-c3ccncc3)[nH]2)cc1 (stereo not given),-0.7
4,NC1=N/C(=C2/CCNC(=O)c3[nH]ccc32)C(=O)N1 [DEBROMOHYMENIALDISINE],0

# Biological target: T3, Serine/threonine-protein kinase 17A (Homo sapiens) (UniProt Q9UEE5)
# T3 sequence (whole entry): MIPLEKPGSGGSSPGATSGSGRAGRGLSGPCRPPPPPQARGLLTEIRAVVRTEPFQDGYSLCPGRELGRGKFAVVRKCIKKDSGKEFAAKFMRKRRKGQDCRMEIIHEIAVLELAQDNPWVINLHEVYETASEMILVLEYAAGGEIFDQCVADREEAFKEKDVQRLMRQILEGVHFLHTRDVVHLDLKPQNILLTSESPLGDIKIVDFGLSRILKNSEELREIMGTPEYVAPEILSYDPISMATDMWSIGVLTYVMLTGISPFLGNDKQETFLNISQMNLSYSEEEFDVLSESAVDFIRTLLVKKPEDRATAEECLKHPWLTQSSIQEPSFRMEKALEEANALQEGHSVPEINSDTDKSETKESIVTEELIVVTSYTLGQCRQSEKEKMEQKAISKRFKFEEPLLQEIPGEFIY
row,Structure (SMILES),ΔTm [°C]
1,CN(C)CCCn1cc(C2=C(c3c[nH]c4ccccc34)C(=O)NC2=O)c2ccccc21 [GF-109203],1.3
2,Cl.Cn1cc(C2=C(c3ccc4cc5n(c4c3)CCC(CN)C5)C(=O)NC2=O)c2ccccc21 (stereo not given),3.5
3,C[S+]([O-])c1ccc(CSc2nc(-c3ccc(F)cc3)c(-c3ccncc3)[nH]2)cc1 (stereo not given),0
4,NC1=N/C(=C2/CCNC(=O)c3[nH]ccc32)C(=O)N1 [DEBROMOHYMENIALDISINE],10.2

# Biological target: Serine/threonine-protein kinase 10 (Homo sapiens) (UniProt O94804)
# Sequence (O94804 whole entry, looked up): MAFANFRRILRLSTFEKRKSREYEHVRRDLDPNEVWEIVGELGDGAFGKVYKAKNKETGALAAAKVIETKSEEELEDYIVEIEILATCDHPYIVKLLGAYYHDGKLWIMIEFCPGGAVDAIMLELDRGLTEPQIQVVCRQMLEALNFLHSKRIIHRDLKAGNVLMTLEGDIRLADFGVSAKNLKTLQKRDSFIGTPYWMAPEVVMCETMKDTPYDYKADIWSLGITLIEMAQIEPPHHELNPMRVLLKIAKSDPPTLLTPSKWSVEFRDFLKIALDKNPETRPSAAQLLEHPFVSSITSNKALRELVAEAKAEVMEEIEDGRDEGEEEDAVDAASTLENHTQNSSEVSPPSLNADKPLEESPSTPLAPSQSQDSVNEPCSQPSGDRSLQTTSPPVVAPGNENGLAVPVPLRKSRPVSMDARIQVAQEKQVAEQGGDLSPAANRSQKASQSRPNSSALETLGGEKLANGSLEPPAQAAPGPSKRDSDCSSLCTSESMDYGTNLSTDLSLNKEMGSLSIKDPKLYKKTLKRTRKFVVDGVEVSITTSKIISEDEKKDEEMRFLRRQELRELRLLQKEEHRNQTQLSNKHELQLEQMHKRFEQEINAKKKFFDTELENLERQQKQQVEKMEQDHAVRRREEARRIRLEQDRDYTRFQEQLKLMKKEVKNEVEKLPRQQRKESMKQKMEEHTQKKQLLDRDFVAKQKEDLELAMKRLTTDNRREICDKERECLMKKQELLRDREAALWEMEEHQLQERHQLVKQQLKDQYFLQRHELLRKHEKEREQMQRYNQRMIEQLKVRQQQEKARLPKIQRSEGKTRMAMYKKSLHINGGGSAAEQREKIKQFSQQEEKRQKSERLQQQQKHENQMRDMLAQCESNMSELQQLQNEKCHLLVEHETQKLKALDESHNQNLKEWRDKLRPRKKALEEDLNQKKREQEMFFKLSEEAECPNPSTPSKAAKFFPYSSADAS
row,Structure (SMILES),ΔTm [°C]
1,CN(C)CCCn1cc(C2=C(c3c[nH]c4ccccc34)C(=O)NC2=O)c2ccccc21 [GF-109203],6.7
2,Cl.Cn1cc(C2=C(c3ccc4cc5n(c4c3)CCC(CN)C5)C(=O)NC2=O)c2ccccc21 (stereo not given),5.3
3,C[S+]([O-])c1ccc(CSc2nc(-c3ccc(F)cc3)c(-c3ccncc3)[nH]2)cc1 (stereo not given),0.8
4,NC1=N/C(=C2/CCNC(=O)c3[nH]ccc32)C(=O)N1 [DEBROMOHYMENIALDISINE],1.7

# Biological target: cAMP-dependent protein kinase catalytic subunit alpha (Homo sapiens) (UniProt P17612)
row,Structure (SMILES),ΔTm [°C]
1,CN(C)CCCn1cc(C2=C(c3c[nH]c4ccccc34)C(=O)NC2=O)c2ccccc21 [GF-109203],3.6
2,Cl.Cn1cc(C2=C(c3ccc4cc5n(c4c3)CCC(CN)C5)C(=O)NC2=O)c2ccccc21 (stereo not given),1.5
3,C[S+]([O-])c1ccc(CSc2nc(-c3ccc(F)cc3)c(-c3ccncc3)[nH]2)cc1 (stereo not given),-0.2
4,NC1=N/C(=C2/CCNC(=O)c3[nH]ccc32)C(=O)N1 [DEBROMOHYMENIALDISINE],0

# Biological target: Tyrosine-protein kinase JAK1 (Homo sapiens) (UniProt P23458)
# Sequence (P23458 whole entry): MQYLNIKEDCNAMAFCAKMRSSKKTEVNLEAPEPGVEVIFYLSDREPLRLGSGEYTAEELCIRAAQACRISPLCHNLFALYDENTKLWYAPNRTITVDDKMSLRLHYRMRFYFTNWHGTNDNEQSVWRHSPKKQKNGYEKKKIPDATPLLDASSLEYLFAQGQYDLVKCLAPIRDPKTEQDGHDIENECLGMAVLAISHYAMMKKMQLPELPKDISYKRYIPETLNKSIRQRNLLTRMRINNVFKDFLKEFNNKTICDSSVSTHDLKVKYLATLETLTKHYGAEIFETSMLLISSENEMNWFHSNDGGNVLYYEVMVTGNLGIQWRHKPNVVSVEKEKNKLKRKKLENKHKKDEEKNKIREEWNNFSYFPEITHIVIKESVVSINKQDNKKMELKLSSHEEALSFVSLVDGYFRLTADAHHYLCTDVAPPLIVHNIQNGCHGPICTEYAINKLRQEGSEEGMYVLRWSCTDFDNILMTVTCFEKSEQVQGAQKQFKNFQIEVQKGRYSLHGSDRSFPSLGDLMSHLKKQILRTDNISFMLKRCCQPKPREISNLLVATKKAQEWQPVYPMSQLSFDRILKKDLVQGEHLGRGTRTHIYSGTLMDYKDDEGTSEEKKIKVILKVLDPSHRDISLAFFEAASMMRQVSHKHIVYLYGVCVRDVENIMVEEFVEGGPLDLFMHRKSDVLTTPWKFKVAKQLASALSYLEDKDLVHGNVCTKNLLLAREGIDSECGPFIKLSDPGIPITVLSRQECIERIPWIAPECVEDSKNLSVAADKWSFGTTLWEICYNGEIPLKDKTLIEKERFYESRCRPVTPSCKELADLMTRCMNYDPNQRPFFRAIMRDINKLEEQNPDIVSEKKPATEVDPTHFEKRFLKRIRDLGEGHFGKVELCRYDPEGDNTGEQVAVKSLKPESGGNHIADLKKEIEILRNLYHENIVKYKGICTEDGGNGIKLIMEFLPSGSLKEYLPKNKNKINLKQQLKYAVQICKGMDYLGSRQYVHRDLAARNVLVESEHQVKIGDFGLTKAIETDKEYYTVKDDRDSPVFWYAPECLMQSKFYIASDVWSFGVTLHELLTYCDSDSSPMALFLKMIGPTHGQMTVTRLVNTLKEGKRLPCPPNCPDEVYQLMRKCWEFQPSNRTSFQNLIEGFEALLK
row,Structure (SMILES),ΔTm [°C]
1,CN(C)CCCn1cc(C2=C(c3c[nH]c4ccccc34)C(=O)NC2=O)c2ccccc21 [GF-109203],1.5
2,Cl.Cn1cc(C2=C(c3ccc4cc5n(c4c3)CCC(CN)C5)C(=O)NC2=O)c2ccccc21 (stereo not given),-2.8
3,C[S+]([O-])c1ccc(CSc2nc(-c3ccc(F)cc3)c(-c3ccncc3)[nH]2)cc1 (stereo not given),0.2
4,NC1=N/C(=C2/CCNC(=O)c3[nH]ccc32)C(=O)N1 [DEBROMOHYMENIALDISINE],-0.2

# Biological target: Serine/threonine-protein kinase 38 (Homo sapiens) (UniProt Q15208)
# Sequence (Q15208 2-465 limits assumed): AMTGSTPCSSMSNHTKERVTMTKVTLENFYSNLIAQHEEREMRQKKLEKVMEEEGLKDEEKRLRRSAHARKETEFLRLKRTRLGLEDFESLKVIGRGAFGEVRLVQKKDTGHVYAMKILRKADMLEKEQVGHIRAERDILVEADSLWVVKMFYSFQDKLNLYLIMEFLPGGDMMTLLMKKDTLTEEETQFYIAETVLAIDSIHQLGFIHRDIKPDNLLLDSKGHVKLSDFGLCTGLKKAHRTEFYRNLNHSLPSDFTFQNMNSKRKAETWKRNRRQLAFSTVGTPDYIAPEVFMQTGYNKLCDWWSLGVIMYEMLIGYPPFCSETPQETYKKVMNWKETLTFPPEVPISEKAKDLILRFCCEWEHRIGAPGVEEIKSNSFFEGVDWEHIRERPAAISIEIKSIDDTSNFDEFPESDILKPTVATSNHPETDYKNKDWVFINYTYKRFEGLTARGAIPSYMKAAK
row,Structure (SMILES),ΔTm [°C]
1,CN(C)CCCn1cc(C2=C(c3c[nH]c4ccccc34)C(=O)NC2=O)c2ccccc21 [GF-109203],0.3
2,Cl.Cn1cc(C2=C(c3ccc4cc5n(c4c3)CCC(CN)C5)C(=O)NC2=O)c2ccccc21 (stereo not given),0.4
3,C[S+]([O-])c1ccc(CSc2nc(-c3ccc(F)cc3)c(-c3ccncc3)[nH]2)cc1 (stereo not given),0.4
4,NC1=N/C(=C2/CCNC(=O)c3[nH]ccc32)C(=O)N1 [DEBROMOHYMENIALDISINE],0.7
